Measurements: patent US20050272748A1, “2-Mercapto-substituted triazolopyrimidines, methods for the production thereof, the use of the same for controlling patogenic fungi, and agents containing said compounds” (BASF Aktiengesellschaft, priority 2002, published 2005)

Tested on: Botrytis cinerea
Assay: Activity against gray mold on bell pepper leaves, protective application
Assay type: in vivo
Settings: 250 ppm active compound; bell pepper seedlings sprayed to runoff, inoculated next day, evaluated after 5 days; untreated plants 45% infected
Experimental: The active compounds were prepared as a 10% strength emulsion in a mixture of 70% by weight of cyclohexanone, 20% by weight of Nekanil®) LN (Lutensol®) AP6, wetting agent having emulsifying and dispersing action based on ethoxylated alkylphenols) and 10% by weight of Wettol® EM (nonionic emulsifier based on ethoxylated castor oil) and diluted with water to the desired concentration. Use example: Activity against gray mold, caused by Botiytis cinerea, on bell pepper leaves, protective application Bell pepper seedlings of the cultivar “Neusiedler Ideal Elite” were, after 4 to 5 leaves were well-developed, sprayed to runoff-point with an aqueous suspension having the concentration of active compound stated below. The next day, the treated plants were inoculated with a spore suspension of Botrytis cinerea, which contained 1.7×10^6 spores/ml in an aqueous 2% strength biomalt solution. […] After 5 days, the extent of the fungal infection on the leaves could be determined visually in %. […] The efficacy (E) is calculated as follows, using Abbot's formula: E=(1−α/β)·100 • α corresponds to the fungal infection of the treated plants in % and • β corresponds to the fungal infection of the untreated (control) plants in % At an efficacy of 0, the degree of infection of the treated plants corresponds to that of the untreated control plants; at an efficacy of 100, the treated plants were not infected.

Structure (SMILES): CC1CCN(c2c(-c3c(F)cc(F)cc3F)c(Cl)nc3nc(S)nn23)CC1 [Example 9, 5-chloro-7-(4-methylpiperidin-1-yl)-2-mercapto-6-(2,4,6-trifluorophenyl)-[1,2,4]-triazolo[1,5-a]pyrimidine]
- efficacy (Abbot's formula): 56%
